“Also recorded” adds a separate entry of the source.
Tests used:
[1] = test system: group 2 ATRT cell lines; test: MTS cell viability assay on group 2 ATRT cell lines; assay type: cell-based, human; conditions: for changes in growth / sensitivity: group 2 cell lines (SH, CHLA06, BT16, BT12), epigenetic inhibitors
Method: (§1) ATRT cell line CHLA02 (ATCC, Cat #CRL-3020), CHLA04 (ATCC, Cat #CRL-3036) were cultured according to the manufacturer's protocol. CHLA05 and CHLA06 cells, which were derived from primary ATRTs by Dr. Anat Erdreich-Epstein from the Children's Hospital of Los Angeles, were cultured in DMEM/F12 supplemented with 20 ng/mL FGF, 20 ng/mL EGF, and 1× B27 supplement. SH cells were obtained from Dr. Shih Hwa Choiu at Taipei Veterans General Hospital and was cultured as previously described (Kao et al., 2005). BT12 and BT16, which were kind gifts from Dr. Peter Houghton at Nationalwide Children's Hospital, were cultured in RPMI-1640 supplemented with 10% FBS. ATRT 78C cells was established from a corresponding primary ATRT (T13; diagnosed at The Hospital for Sick Children) and cultured in Neurobasal medium supplemented with 75 ng/mL BSA, 10 ng/mL FGF1, 10 ng/mL EGF, 2 ug/mL Heparin, 1× B27 and 1× N2 supplements. CHLA266 was grown in IMEM media with 10% FBS and 1× ITS. G401 (ATCC, Cat #CRL-1441) was grown in McCoy's 5A media with 10% FBS.
(§2) To assess effects of NOTCH and BMP signaling on ATRT cell phenotypes, cells were treated with N-[N-(3,5-Difluorophenacetyl)-L-alanyl]-S-phenylglycine t-butyl ester (DAPT; EMD Chemicals, Germany, Cat #565770) or Dorsomorphin (DM; Sigma-Aldrich, USA, Cat #P5499) and analyzed using MTS assays for cell viability. […] For epigenomic drug screening experiments, conditions were set up identically with the exception of absorbance readings being taken at 3 and 7 days post-treatment. Cell viability was determined based on mean cell absorbance at 492 nm.

[2] = test system: group 1 (CHLA02) ATRT cell line; test: TUNEL assay in group 1 ATRT cell line; assay type: cell-based, human
Method: TUNEL assays were performed using in situ cell death detection kit, Fluorescein, according to manufacturer's instructions (Roche, West Sussex, UK). Pictures were taken at 20× magnification. Percentage of TUNEL positive population was calculated with respect to DAPI-positive cells, in five random fields per cell cultured slide, and averaged as representative population. Fold-changes were obtained by comparing with untreated control. Cell migration and invasive phenotypes of ATRT cell lines was assessed using a Transwell Boyden chamber assay according to manufacturer's instructions (BD Science). In brief, 3.5×10^3 cells were seeded onto membranes with 8 μm pores in Boyden chambers, and incubated at 37° C. Membranes were removed after 18 hours and examined at 10× magnification under the microscope. To enumerate the number of cells that had invaded and migrated, cell counts from five random fields on the membrane was used to estimate the total number of cells migrated across the transwell membrane.

[3] = test system: NOTCH signaling; test: Western blot and qRT-PCR analyses of NOTCH signaling in group 1 ATRT cell lines; assay type: cell-based, human; conditions: group 1 cell lines 78C, CHLA02, CHLA05
Method: Nuclear and whole cell lysates were prepared using cytosol lysis buffer or nuclear buffer F (Sommer et al., 1998) respectively and immunoblotted with antibodies to SMARCB1/BAF47 (BD Biosciences, USA, Cat #612110), cleaved NOTCH1 (Cell Signaling, USA, Cat #2421S), pSMAD1/5 (Cell Signaling, USA, Cat #95165), SMAD1 (Cell Signaling, USA, Cat #9743S) or a-Tubulin (Sigma-Aldrich, USA, Cat #T9026) as per standard methods. Phospho-PDGFRβ P70 was obtained from Santa Cruz Biotechnology (Santa Cruz, Calif. USA, Cat #sc-12909-R). BAF47 immuno-staining of tumor samples was performed by the Hospital for Sick Children Pathology Department (Toronto, ON, Canada) as per standard clinical protocols.
cDNAs were synthesized from high quality RNA using the High Capacity cDNA Reverse Transcription Kit (Applied Biosystem, Cat #4368814) as per the manufacturer's instructions and qRT-PCR analyses were performed using purchased Taqman probes and the TaqMan® Gene Expression Master Mix (Invitrogen) (BAMBI, SOST, BCR [exon2, 8, 16, 18, 21, 23], RGL4, CHCHD10, MMP11, SMARCB1 [exon 2, 5]). A subset of analyses was performed with Platinum SYBR Green qPCR reagent kit (Invitrogen) as per the manufacturer's protocol with in-house designed primers to amplify invariant exons (HES1, HES5). […] Synthesized cDNA were analysed with gene specific probes using the Platinum SYBR green qPCR reagent kit. […]

[4] = test system: group 1 ATRT cell lines; test: MTS cell viability assay on group 1 ATRT cell lines; assay type: cell-based, human; conditions: for growth inhibitory effects / sensitivity: epigenetic inhibitors
Method: as §1, §2

[5] = cited from earlier work
[6] = test system: ATRT cell lines; test: MTS cell viability screen of epigenetic probes on the whole ATRT cell line panel (4 group 1 and 4 group 2); assay type: cell-based, human; conditions: 4 group 1 and 4 group 2 cell lines, varying doses
Excerpt: Recent studies have reported promising therapeutic agents targeting a number of epigenetic and signaling pathways in ATRTs (Ginn and Gajjar, 2012), however the relevance of these agents to ATRT sub-types is unknown as these prior studies have examined a very limited number of cell lines. To identify additional ATRT sub-group specific pathways/targets, the effects of 12 small molecule inhibitors/chemical probes targeting epigenetic pathways on growth of 4 group 1 (CHLA266, CHLA04, 02, 05) and 4 group 2 ATRT (SH, CHLA06, BT16 and BT12) cell lines (FIG. 18A) were tested.
as §1, §2

[7] = test system: G401, a cell line derived from a renal rhabdoid tumor; test: Growth of G401 renal rhabdoid tumor cell line; assay type: cell-based, human; conditions: data not shown
Method: as §1

With C[C@H](NC(=O)Cc1cc(F)cc(F)c1)C(=O)N[C@H](C(=O)OC(C)(C)C)c1ccccc1 [DAPT, N-[N-(3,5-difluorophenacetyl)-L-alanyl]-S-phenylglycine t-butyl ester] the “cell line growth (cell viability, MTS)” value ([1]; group 2A/B (SH, CHLA06, BT16), DAPT or DM, varying doses, days 1-5, relative to DMSO) was “no significant effects on cell growth; also recorded: largely insensitive”, the “cell death / apoptosis (TUNEL)” value [2] was “increased cell death; also recorded: induced apopotosis” and the NICD expression ([3]; Western blot, increasing doses) was “dose dependent decrease in NICD expression”. For the same compound, the “NOTCH transcriptional targets, HES1 and HESS” value ([3]; qRT-PCR, four days post-treatment) was “downregulation” and the “cell line growth (cell viability, MTS)” value ([4]; group 1 (78C, CHLA05, CHLA02), DAPT or DM, varying doses, days 1-5, relative to DMSO) was “inhibited group 1 and 2 ATRT cell line growth in a dose dependent manner; also recorded: sensitive”.

For Cc1nc(Nc2ncc(C(=O)Nc3c(C)cccc3Cl)s2)cc(N2CCN(CCO)CC2)n1 [Dasatinib], the blood brain permeability [5] is given as “demonstrated blood brain permeability”.

For Cc1sc2c(c1C)C(c1ccc(Cl)cc1)=N[C@@H](CC(=O)OC(C)(C)C)c1nnc(C)n1-2 [JQ1, (S)-tent-butyl 2-(4-(4-chlorophenyl)-2,3,9-trimethyl-6H-thieno[3,2-f][1,2,4]triazolo[4,3-a][1,4]diazepin-6-yl)acetate], the “changes in growth / sensitivity” value ([1]; varying doses, MTS) was 3 of the 4 group 2 cell lines showed no changes in growth, the “effect on ATRT cell growth across sub-groups” value [6] was “sub-group specific effect” and the “growth inhibitory effects / sensitivity” value ([4]; group 1 ATRT cell lines, MTS) was “growth inhibitory effects were observed only in group 1 ATRT cell lines”.

For O=C(/C=C/c1ccc(CN(CCO)CCc2c[nH]c3ccccc23)cc1)NO [LAQ824], the “effect on ATRT cell growth across sub-groups” value [6] was “significantly diminished growth of all cell lines; also recorded: no sub-type specific effects”.

In the case of Cc1cn(-c2cc(NC(=O)c3ccc(C)c(Nc4nccc(-c5cccnc5)n4)c3)cc(C(F)(F)F)c2)cn1 [Nilotinib], the “growth / sensitivity to tyrosine kinase inhibitor” value ([1]; group 2 ATRT cell lines, MTS, 5 days) is reported as “robustly diminished growth; also recorded: sensitive”, the “growth of G401” value [7] is reported as “robustly inhibit the growth” and the “growth / sensitivity to tyrosine kinase inhibitor” value ([4]; group 1 ATRT cell lines, MTS, 5 days) is reported as “resistant”.

For COc1cc2c(NC3CCN(C(C)C)CC3)nc(C3CCCCC3)nc2cc1OCCCN1CCCC1 [UNC0638], the “changes in growth / sensitivity” value ([1]; varying doses, MTS) was 3 of the 4 group 2 cell lines showed no changes in growth and largely insensitive, the “effect on ATRT cell growth across sub-groups” value [6] was “sub-group specific effect” and the “growth inhibitory effects / sensitivity” value ([4]; group 1 ATRT cell lines, MTS) was “only group 1 ATRT cell lines were sensitive”.

With CCCc1cc(C)[nH]c(=O)c1CNC(=O)c1cc(-c2ccc(N3CCN(C(C)C)CC3)nc2)cc2c1cnn2C(C)C [UNC1999] the “changes in growth / sensitivity” value ([1]; varying doses, MTS) was 3 of the 4 group 2 cell lines showed no changes in growth and largely insensitive, the “effect on ATRT cell growth across sub-groups” value [6] was “sub-group specific effect” and the “growth inhibitory effects / sensitivity” value ([4]; group 1 ATRT cell lines, MTS) was “growth inhibitory effects were observed only in group 1 ATRT cell lines”.

Source: patent publication US20170298437A1, “METHODS AND USES RELATED TO RHABDOID TUMORS” (The Hospital For Sick Children, priority 2016, published 2017)
